Seven compounds from PubChem BioAssay (NCI) can be followed below.

Some test systems named below: NCI-H23 lung; MDA-MB-231 breast; MCF7 breast; OVCAR-5 ovarian; MALME-3M melanoma; NCI-H226 lung; U251 CNS; SW-620 colon; HCC-2998 colon; MDA-MB-435.
Holding throughout (experiment): NCI anticancer screen, dose series, 48 h

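48-hour exposure; five concentrations; linearly interpolated endpoints. GI50 = concentration required for 50% inhibition of growth. Definition used: TGI = concentration required for complete inhibition of growth.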

Take `O=C(O)c1cc2ccccc2c(N=Nc2cc(C(F)(F)F)ccc2Cl)c1O`: the TGI in the assay on NCI-H23 lung was over 100 µM; in the assay on MDA-MB-231 breast, 86.7 µM; in the assay on MCF7 breast it was over 100 µM; in the assay on OVCAR-5 ovarian it was over 100 µM; in the assay with MALME-3M melanoma it was over 100 µM; in the assay with NCI-H226 lung it was over 100 µM. The TGI with U251 CNS, in the assay on SW-620 colon, in the assay on HCC-2998 colon and with MDA-MB-435 was over 100 µM throughout.

As for `Cc1nccc2c3ccc(OCc4cn(-c5ccc(Cl)cc5)nn4)cc3n(CCCc3ccccc3)c12`, the GI50 in the assay with NCI-H23 lung was 19.7 µM; in the assay with MDA-MB-231 breast it was 6.83 µM; with MCF7 breast, 1.49 µM; with OVCAR-5 ovarian it was 7.34 µM; with MALME-3M melanoma, 0.745 µM; in the assay with NCI-H226 lung, 1.72 µM. The GI50 with U251 CNS was 8.82 µM; in the assay with SW-620 colon, 2.2 µM; in the assay with HCC-2998 colon, 6.13 µM; in the assay with MDA-MB-435, 2 µM. Besides, the TGI was over 33.3 µM in the assay with NCI-H23 lung; over 33.3 µM with MDA-MB-231 breast; over 33.3 µM in the assay with MCF7 breast; over 33.3 µM in the assay on OVCAR-5 ovarian; 2.79 µM in the assay on MALME-3M melanoma; 9.12 µM in the assay with NCI-H226 lung. Moreover, the TGI in the assay with U251 CNS, in the assay with SW-620 colon, in the assay on HCC-2998 colon and in the assay on MDA-MB-435 was over 33.3 µM each time.

In the case of `N#CSc1c[nH]c2ccc(/C=C/C(=O)/C=C(/C=C/c3ccc4[nH]cc(SC#N)c4c3)OB(F)F)cc12`, the GI50 in the assay with NCI-H23 lung was 0.947 µM; with MDA-MB-231 breast, 0.917 µM; in the assay on MCF7 breast it was 0.458 µM; with OVCAR-5 ovarian it was 2.24 µM; in the assay on MALME-3M melanoma, 0.261 µM; with NCI-H226 lung it was 2.18 µM. Further, the GI50 was 1.04 µM in the assay with U251 CNS, 0.333 µM with SW-620 colon, 3.72 µM with HCC-2998 colon and 1.44 µM in the assay on MDA-MB-435. Moreover, the TGI in the assay with NCI-H23 lung came out at 3.86 µM; in the assay with MDA-MB-231 breast, 2.34 µM; in the assay on MCF7 breast it was 3.5 µM; in the assay with OVCAR-5 ovarian, 8.68 µM; in the assay with MALME-3M melanoma, 0.845 µM; with NCI-H226 lung, 5.62 µM. Also, the TGI in the assay on U251 CNS came to 2.99 µM; in the assay on SW-620 colon, 1.16 µM; in the assay with HCC-2998 colon, 19.7 µM; in the assay with MDA-MB-435 it was 3.25 µM.

With `CN(C)C/C=C/C(=O)Nc1cc2c(Nc3ccc(F)c(Cl)c3F)ncnc2cc1OCCOC(F)F`, the GI50 in the assay on NCI-H23 lung was 1.23 µM; with MDA-MB-231 breast it was 0.472 µM; with MCF7 breast, 1.24 µM; in the assay on OVCAR-5 ovarian, 0.136 µM; with MALME-3M melanoma, 1.27 µM; in the assay with NCI-H226 lung, 1.31 µM. Besides, the GI50 in the assay with U251 CNS is 1.99 µM; with SW-620 colon, 1.24 µM; in the assay on HCC-2998 colon it was 1.16 µM; with MDA-MB-435, 1.17 µM. Moreover, the TGI with NCI-H23 lung was found to be 3.82 µM; with MDA-MB-231 breast, 6.53 µM; in the assay with MCF7 breast it was 10.1 µM; in the assay on OVCAR-5 ovarian, 13.7 µM; with MALME-3M melanoma, 2.94 µM; in the assay on NCI-H226 lung it was 4.67 µM. Besides, the TGI was determined as 9.23 µM with U251 CNS, 9.58 µM with SW-620 colon, 2.68 µM in the assay with HCC-2998 colon and 6.63 µM in the assay with MDA-MB-435.

In the case of `CCN(CC)CCCC(C)Nc1nc(C)cc(Nc2ccc3nc(C)cc(N)c3c2)n1` (stereo not given), the GI50 was 32.1 µM in the assay on NCI-H23 lung; 29 µM in the assay with MDA-MB-231 breast; 31.2 µM in the assay with MCF7 breast; 45.8 µM in the assay with OVCAR-5 ovarian; 24.7 µM in the assay on MALME-3M melanoma; over 100 µM in the assay with NCI-H226 lung. Also, the GI50 in the assay on U251 CNS was 26.4 µM; in the assay with SW-620 colon it was 35.8 µM; with HCC-2998 colon, 26.9 µM; in the assay with MDA-MB-435, 14.5 µM. For the same compound, the TGI in the assay on NCI-H23 lung was over 100 µM; in the assay with MDA-MB-231 breast it was 85.8 µM; in the assay with MCF7 breast, 78.3 µM; in the assay with OVCAR-5 ovarian, over 100 µM; in the assay with MALME-3M melanoma, 70.2 µM; with NCI-H226 lung, over 100 µM. Further, the TGI with U251 CNS was 98.7 µM; in the assay with SW-620 colon it was over 100 µM; in the assay with HCC-2998 colon, 82.9 µM; with MDA-MB-435 it was 29.5 µM.

As to `COc1ccc(-c2nc(C(=O)c3ccccc3)n(CC(=O)c3ccccc3)c2-c2ccc(OC)cc2)cc1`, the GI50 in the assay on NCI-H23 lung, with MDA-MB-231 breast, in the assay with MCF7 breast, with OVCAR-5 ovarian, in the assay on MALME-3M melanoma and in the assay on NCI-H226 lung was over 100 µM each time. For the same compound, the GI50 in the assay on U251 CNS, in the assay with SW-620 colon, in the assay on HCC-2998 colon and in the assay with MDA-MB-435 was over 100 µM throughout. Moreover, the TGI with NCI-H23 lung, with MDA-MB-231 breast, with MCF7 breast, in the assay with OVCAR-5 ovarian, with MALME-3M melanoma and with NCI-H226 lung was over 100 µM each time. For the same compound, the TGI in the assay on U251 CNS, in the assay with SW-620 colon, in the assay with HCC-2998 colon and in the assay on MDA-MB-435 was over 100 µM in each case.

For the compound `CCn1cc(-c2ccnc3[nH]ccc23)c(-c2cccc(NC(=O)Nc3ccc(OCc4ccccc4)cc3)c2)n1`, the GI50 in the assay with NCI-H23 lung was 16.5 µM; with MDA-MB-231 breast, 6.57 µM; with MCF7 breast, 8.15 µM; in the assay on OVCAR-5 ovarian it was 22.1 µM; with MALME-3M melanoma, over 22.6 µM; in the assay with NCI-H226 lung, over 25 µM. Besides, the GI50 with U251 CNS is 4.75 µM; with SW-620 colon it was 20.2 µM; with HCC-2998 colon, 13.2 µM; in the assay with MDA-MB-435, 11 µM. The TGI in the assay on NCI-H23 lung, in the assay on MDA-MB-231 breast, with MCF7 breast, in the assay on OVCAR-5 ovarian, with MALME-3M melanoma and with NCI-H226 lung was over 25 µM each time. The TGI in the assay with U251 CNS, in the assay on SW-620 colon, with HCC-2998 colon and in the assay on MDA-MB-435 was over 25 µM each time.
